# Laboratory results reported in PMC10374545, “A small molecule inhibitor of PTP1B and PTPN2 enhances T cell anti-tumor immunity” (Nature Communications, 2023).
# Values joined by “and” are separate entries in the source; they are usually repeats but may differ in a detail not shown here. Identical values can stand only once.
# What was measured:
# OT-I CD8+ T cells = assay: T cell activation assay (CD25, CD69 by flow cytometry); type: cell-based, mouse; details: for CD25, group mean (Mean 2) / CD69, group mean (Mean 2): Fig. 2A; for CD25 (MFI), single replicates / CD69 (MFI), single replicates: N4 1 nM, 1 μM, 48 h, Fig. 2A raw data
# Description: The cell surface markers CD8, CD25, and CD69 were analyzed using fluorophore-conjugated antibodies by flow cytometry.
# [1] = tested on: STAT-5 Y694 phosphorylation in NK cells; assay: IL-15-induced p-STAT-5 in NK cells; type: cell-based, mouse; details: 0.1 or 1 (µM in figure, µg/ml in legend)
# Description: proliferation in vitro. a-b) NK cells from C57BL/6 male mice (n=3 per group) were expanded […]
# µg/ml) or vehicle (1% v/v DMSO) in the absence of IL-15. a) NK cells were re-stimulated for 15 min with the indicated amounts of IL-15 and Y694 phosphorylated STAT-5 (p-STAT-5) mean fluorescence intensities (MFIs) determined by flow cytometry. b) Alternatively, NK cells were stained with carboxyfluorescein succinimidyl ester (CFSE, Invitrogen) and then re-stimulated with the indicated amounts of IL-15 for 96 h and NK cell proliferation (CFSE dilution) monitored by flow cytometry. c-d) NK cells from C57BL/6 male mice (n=3 per group) were expanded ex vivo in the presence of IL-15 and then pre-treated with CMP-182 (0.1 or 1 µg/ml) or vehicle in the absence of IL-15. NK cells were re-stimulated with either IL-12 (10 ng/ml) or IL-18 (100 ng/ml) or with α-NK1.1 or α-Ly49H for 4 h. NK cells were maintained in 10 ng/ml IL-15 throughout the 4 h incubation time. Percentages of c) IFN-γ+ and d) CD107A+ NK cells were determined by flow cytometry. In (a-d) results shown are means ± SEM and are representative of at least two independent experiments.
# AT3-OVA mammary tumors = assay: AT3-OVA tumor growth in Rag1-/- mice; type: in vivo, mouse; set-up: key to Tumour growth: tumour size in mm^2 (two-dimensional caliper measurement); Tumour weights: unit not given here; details: for Tumour size RAG1, mean: in mm2
# Description: (§1) Male or female mice were injected subcutaneously with 5 × 10^5 MC38 tumor cells resuspended in 100 μl D-PBS into the flank. Alternatively, female mice were injected orthotopically with 5 × 10^5 AT3 or AT3-OVA or PTPN2-deleted AT3 or AT3-OVA tumor cells resuspended in 20 μl D-PBS into the fourth mammary fat pad. Tumor sizes were measured in two dimensions (mm^2) using electronic callipers two to three times per week as soon as tumors were palpable (20–25 mm^2).
# AT3 mammary tumors = assay: AT3 tumor growth in Lck-Cre;Ptpn2fl/fl mice; type: in vivo, mouse; set-up: key to Tumour growth: tumour size in mm^2 (two-dimensional caliper measurement); Tumour weights / Tumour weights (mean): unit not given here; details: for Tumour size (mean): CMP-182 in LCK-CRE-PTPN2 mice (Group C), in mm2; for Tumour growth: individual mice (Figure 8D)
# Description: as §1
# [2] = Lck-Cre;Ptpn2fl/fl (2K) OT-I cells, listed as 2KI
# [3] = wild type OT-I cells + inhibitor, n 6
# [4] = wild type OT-I cells, listed as WTI
smiles,measurement,setting,value
"CC(C)(O)CCOc1ccc2cc(O)c(N3CC(=O)NS3(=O)=O)c(F)c2c1 [Compound 182, 5-(1-Fluoro-3-hydroxy-7-(3-hydroxy-3-methylbutoxy)naphthalen-2-yl)−1,2,5-thiadiazolidin-3-one 1,1-dioxide]","CD25, group mean (Mean 2)","OT-I CD8+ T cells; 2K OT-I cells + inhibitor, n 4",49238
same,"CD69, group mean (Mean 2)","OT-I CD8+ T cells; 2K OT-I cells + inhibitor, n 4",3065
same,"CD25 (MFI), single replicates",OT-I CD8+ T cells; [2],50690 and 58145 and 42341 and 45775
same,"CD69 (MFI), single replicates",OT-I CD8+ T cells; [2],3049 and 3660 and 3360 and 2191
same,"antigen-induced activation of CD8+ T cells (CD25, CD69)","OT-I CD8+ T cells; OT-I cells, SIINFEKL (N4)",enhanced
same,"CD25, group mean (Mean 2)",OT-I CD8+ T cells; [3],43739
same,"CD69, group mean (Mean 2)",OT-I CD8+ T cells; [3],2723
same,"CD25 (MFI), single replicates",OT-I CD8+ T cells; [4],44120 and 42537 and 42315 and 46694 and 45914 and 40851
same,"CD69 (MFI), single replicates",OT-I CD8+ T cells; [4],2509 and 2213 and 3486 and 2750 and 2693 and 2686
same,IL-15-induced p-STAT-5 in NK cells,[1],did not enhance
same,AT3-OVA mammary tumor growth in Rag1-/- mice,"AT3-OVA mammary tumors; 10 mg/kg i.v., mice lack T and B cells",no effect
same,Tumour growth,"AT3-OVA mammary tumors; Figure 6E, RAG1 mice, n=6, individual animals, day 9 post injection, listed as CMP-182",7.7488 and 14.8962 and 11.224 and 3.9597 and 9.447 and 12.6224
same,Tumour growth,"AT3-OVA mammary tumors; Figure 6E, RAG1 mice, n=6, individual animals, day 11 post injection, listed as CMP-182",19.6245 and 35.0523 and 26.8632 and 16.6934 and 15.0024 and 31.8592
same,Tumour growth,"AT3-OVA mammary tumors; Figure 6E, RAG1 mice, n=6, individual animals, day 14 post injection, listed as CMP-182",31.9081 and 32.6823 and 36.7674 and 25.1923 and 36.3137 and 48.8592
same,Tumour growth,"AT3-OVA mammary tumors; Figure 6E, RAG1 mice, n=6, individual animals, day 16 post injection, listed as CMP-182",59.5752 and 89.2808 and 73.4616 and 57.4821 and 68.9011 and 83.2686
same,Tumour growth,"AT3-OVA mammary tumors; Figure 6E, RAG1 mice, n=6, individual animals, day 18 post injection, listed as CMP-182",74.7088 and 110.046 and 88.7004 and 79.0656 and 57.8454 and 92.4255
same,Tumour growth,"AT3-OVA mammary tumors; Figure 6E, RAG1 mice, n=6, individual animals, day 21 post injection, listed as CMP-182",75.82 and 124.872 and 109.74 and 89.0525 and 89.04 and 103.68
same,Tumour growth,"AT3-OVA mammary tumors; Figure 6E, RAG1 mice, n=6, individual animals, day 23 post injection, listed as CMP-182",84.728 and 134.64 (3×) and 89.0525 and 133.35
same,Tumour growth,"AT3-OVA mammary tumors; Figure 6E, RAG1 mice, n=6, individual animals, day 25 post injection, listed as CMP-182",88 and 156.6 and 126.72 and 89.0525 and 186.66 and 168.74
same,Tumour weights,"AT3-OVA mammary tumors; Figure 6E, RAG1 mice, n=6, individual animals, listed as CMP-182",270 and 560 and 890 and 220 and 490 and 330
same,"TUMOR WEIGHTS RAG1, median","AT3-OVA mammary tumors; RAG1 mice, column B (Data Set-B), n=6, Figure 6E","410.0, n=6"
same,"Tumour size RAG1, mean over all time points (column mean)","AT3-OVA mammary tumors; RAG1 mice, n=6, Figure 6E, mean of 8 time points",72.3 mm2
same,"Tumour size RAG1, mean","AT3-OVA mammary tumors; RAG1 mice, n=6, time point 9, Figure 6E",9.983
same,"Tumour size RAG1, mean","AT3-OVA mammary tumors; RAG1 mice, n=6, time point 11, Figure 6E",24.18
same,"Tumour size RAG1, mean","AT3-OVA mammary tumors; RAG1 mice, n=6, time point 14, Figure 6E",35.29
same,"Tumour size RAG1, mean","AT3-OVA mammary tumors; RAG1 mice, n=6, time point 16, Figure 6E",71.99
same,"Tumour size RAG1, mean","AT3-OVA mammary tumors; RAG1 mice, n=6, time point 18, Figure 6E",83.8
same,"Tumour size RAG1, mean","AT3-OVA mammary tumors; RAG1 mice, n=6, time point 21, Figure 6E",98.7
same,"Tumour size RAG1, mean","AT3-OVA mammary tumors; RAG1 mice, n=6, time point 23, Figure 6E",118.5
same,"Tumour size RAG1, mean","AT3-OVA mammary tumors; RAG1 mice, n=6, time point 25, Figure 6E",136
same,AT3 tumor growth in Lck-Cre;Ptpn2fl/fl mice,"AT3 mammary tumors; 10 mg/kg i.v., beyond PTPN2 deletion in T cells",further suppressed tumor growth
same,eradication of AT3 tumors in Lck-Cre;Ptpn2fl/fl mice,"AT3 mammary tumors; 10 mg/kg i.v., tumors eradicated/total",3/6
same,Tumour weights (mean),"AT3 mammary tumors; AT-3 tumours, CMP-182 in LCK-CRE-PTPN2 mice",7
same,Tumour size (mean),"AT3 mammary tumors; AT-3 tumours, time point 7",19.03
same,Tumour size (mean),"AT3 mammary tumors; AT-3 tumours, time point 10",21.39
same,Tumour size (mean),"AT3 mammary tumors; AT-3 tumours, time point 12",20.59
same,Tumour size (mean),"AT3 mammary tumors; AT-3 tumours, time point 14",19.84
same,Tumour size (mean),"AT3 mammary tumors; AT-3 tumours, time point 16",13.84
same,Tumour size (mean),"AT3 mammary tumors; AT-3 tumours, time point 19",12.75
same,Tumour size (mean),"AT3 mammary tumors; AT-3 tumours, time point 21",13.01
same,Tumour size (mean),"AT3 mammary tumors; AT-3 tumours, time point 23",11.77
same,"Tumour weights, median","AT3 mammary tumors; AT-3 tumours, CMP-182 in LCK-CRE-PTPN2 mice, n=6","7.500, n=6"
same,Tumour growth,"AT3 mammary tumors; AT-3 tumours, LCK-CRE-PTPN2 mice n=6, day 7 post injection, listed as CMP-182",13.566 (2×) and 20.8844 (2×) and 21.6987 (2×) and 6.7144 (2×) and 16.1674 (2×) and 35.1652 (2×)
same,Tumour growth,"AT3 mammary tumors; AT-3 tumours, LCK-CRE-PTPN2 mice n=6, day 10 post injection, listed as CMP-182",12.25 (2×) and 27.03 (2×) and 24 (2×) and 10.5 (2×) and 18.4 (2×) and 36.18 (2×)
same,Tumour growth,"AT3 mammary tumors; AT-3 tumours, LCK-CRE-PTPN2 mice n=6, day 12 post injection, listed as CMP-182",9 (2×) and 29.15 (2×) and 22.5 (2×) and 12.6 (2×) and 15.2 (2×) and 35.1 (2×)
same,Tumour growth,"AT3 mammary tumors; AT-3 tumours, LCK-CRE-PTPN2 mice n=6, day 14 post injection, listed as CMP-182",9 (2×) and 25.92 (2×) and 22.5 (2×) and 13.32 (2×) and 14.35 (2×) and 33.92 (2×)
same,Tumour growth,"AT3 mammary tumors; AT-3 tumours, LCK-CRE-PTPN2 mice n=6, day 16 post injection, listed as CMP-182",0 (4×) and 24.48 (2×) and 22.95 (2×) and 7.5 (2×) and 28.08 (2×)
same,Tumour growth,"AT3 mammary tumors; AT-3 tumours, LCK-CRE-PTPN2 mice n=6, day 19 post injection, listed as CMP-182",0 (4×) and 22.55 (2×) and 22.95 (2×) and 4 (2×) and 27 (2×)
same,Tumour growth,"AT3 mammary tumors; AT-3 tumours, LCK-CRE-PTPN2 mice n=6, day 21 post injection, listed as CMP-182",0 (4×) and 27.56 (2×) and 22.5 (2×) and 4 (2×) and 24 (2×)
same,Tumour growth,"AT3 mammary tumors; AT-3 tumours, LCK-CRE-PTPN2 mice n=6, day 23 post injection, listed as CMP-182",0 (4×) and 25 (2×) and 22.54 (2×) and 1 (2×) and 22.08 (2×)
same,Tumour weights,"AT3 mammary tumors; AT-3 tumours, LCK-CRE-PTPN2 mice n=6, individual mice (Figure 8D), listed as CMP-182",0 and 12 and 10 and 5 and 15
